Patent US20180353461A1, “USE OF CANNABINOIDS AS CERAMIDE-GENERATING ANTICANCER AGENTS IN TUMORS OF THE HEMATOPOIETIC AND LYMPHOID TISSUES” (priority 2014, published 2018)

Columns and labels:
Type in all cases: cell-based, human
U266 cells [1] = experiment: Western blot of ER-stress regulator proteins in U266 cells; settings: U266, WIN-55 50 uM
Description: Samples (15-25 ug/lane) were subjected to SDS/PAGE in pre-cast polyacrylamide gels AnykD (Bio-Rad Laboratories, Hercules, CA, USA) under reducing and denaturing conditions. Electrophoretic run was performed at a constant current of 15 mA per gel in a Mini-Protean® Tetra Cell (Bio-Rad Laboratories). Once proteins were separated by electrophoresis, were transferred onto PVDF membranes using Trans-Blot® Turbo™ System (Bio-Rad Laboratories). Electrotransference was conducted at constant amperage of 1.2 mA and at up to 25 V of voltage. The blotted membranes were then blocked with 2% bovine serum albumin [(BSA), Santa Cruz Biotechnology] in Tween-Tris buffer saline (TTBS) for 30 min with gentle agitation, and incubated overnight at 4° C. with corresponding primary antibody in TTBS. After twice washing with TTBS, membranes were incubated for 1-2 h at room temperature with suitable conjugated-HRP secondary antibody, and subjected to chemiluminescence detection using Western Blotting Luminol Reagent (Santa Cruz Biotechnology). Loading controls were carried out with an anti-beta-actin and anti-beta-tubulin antibodies (Sigma-Aldrich). […]
Cannabinoids attenuate the response to ER-stress in myelomatous cells. […] To test the effect of cannabinoids on ER-stress we analyzed the expression profile of ER-stress related proteins in myelomatous cells.

HL60 cells = experiment: Western blot of signaling pathways (MAPKs, Akt) in HL60 cells
Description: Protein analyses were performed by Western blot in several sets of assays: expression pattern of CBs-receptors in AML cell lines and primary cells, and time course after treatment with cannabinoids in AML cell lines.
Cells were solubilized with ice-cold lysis buffer containing 2% ASB-14 (CalbioChem, San Diego, Calif., USA), 1% Nonidet P-40 (Ipegal®), 137 mM NaCl, 20 mM Tris-HCl pH 7.5 at 4° C. (all from Sigma-Aldrich), 2 mM Na3VO4, 20 mM NaF (New England BioLabs Inc., Ipswich, Mass., USA), 2 mM DTT (AppliChem, Darmstadt, Germany), protease inhibitor cocktail (Roche Diagnostics GmbH, Mannheim, Germany), and 10 ul Nuclease Mix (Amersham GE Healthcare, Uppsala, Sweden). Insoluble materials were removed by centrifugation at 13,000×g for 15 min at 4° C. Protein content was determined by Pierce® Microplate BCA Protein Assay kit-Reducing Agent Compatible (Thermo Fisher Scientific).
Extracted proteins (15-25 ug/well) were separated by sodium dodecyl sulfate-polyacrylamide gel electrophoresis (SDS/PAGE) in pre-cast polyacrylamide gels AnykD (Bio-Rad Laboratories, Hercules, Calif., USA) under reducing and denaturing conditions. Electrophoretic run was performed at a constant current of 15 mA per gel in a Mini-Protean® Tetra Cell (Bio-Rad Laboratories) and were electrophoretically transferred onto PVDF membranes using Trans-Blot® Turbo™ System (Bio-Rad Laboratories). Blocking was performed with 2% bovine serum albumin [(BSA), Santa Cruz Biotechnology] in Tween-Tris buffer saline (TTBS). Membranes were incubated overnight at 4° C. with corresponding primary antibody in TTBS.
Detection was performed using Western Blotting Luminol Reagent (Santa Cruz Biotechnology).
Signaling pathways targeted by cannabinoids in leukemic cells. To get further insights into the mechanisms of cannabinoids-induced apoptosis, we assessed the expression profile of phosphorylated-JNK, -Erk1/2, -p38 MAPK and -Akt by Western blot.

U266 cells [2] = experiment: Mitochondrial transmembrane potential (TMRE assay) in U266 cells
Description: The loss of mitochondrial transmembrane potential (Δψm), a marker of early apoptotic events, was determined by staining with TRME [(tetramethylrhodamine-ethyl-ester-perchlorate), Santa Cruz Biotechnology Inc.]. TMRE is a cell-permeable dye that becomes fluorescent once it is inside the mitochondria and, it can be detected using a fluorescent plate reader (Tecan). Briefly, cells (10e6 cells per assay) were treated with different concentrations of WIN-55 in presence or absence of SPT-inhibitor for 15, 30, 45 and 60 min at 37° C. After washing twice, cells were incubated for 20 min at 37° C. in the dark with 1 uM TMRE. The fluorescent intensity was read in the plate reader with excitation and emission wavelengths set at 485 and 538 nm respectively for red fluorescence. For each condition, triplicate samples (at least five times) were run, fluorescent readings were corrected for background. In all assays, CCCP (2-[2-(3-Chlorophenyl) hydrazinylyidene] propanedinitrile, a potent mitochondrial uncoupler, was used as a positive control of mitochondrial potential status.
The early loss of mitochondrial-membrane potential induced by cannabinoids. To delve into the processes that participate in cannabinoid-induced apoptosis, finally we tested whether the cannabinoid treatment induces changes on Δψm in myelomatous cells. We observed that cannabinoids induced a drop of Δψm in U266 cells (FIG. 10). […]

With `CS(=O)(=O)O.Cc1c(C(=O)c2cccc3ccccc23)c2cccc3c2n1[C@H](CN1CCOCC1)CO3` [WIN-55, (R)-(+)-[2,3-dihydro-5-methyl-3-(4-morpholinylmethyl)-pyrrolo-[1,2,3]-1,4-benzoxazin-6-yl]-1-naphthalenylmethanone mesylate] the “response to ER-stress: expression of CHOP, ATF-4, p-IRE1” value (U266 cells [1]) was “attenuates the response to ER-stress”, the p-Erk1/2 (HL60 cells; HL60, WIN-55 50 uM) was “slightly up-regulated” and the p-Akt (HL60 cells; HL60, time-dependent) was “significantly downregulated”. The “p-p38 MAPK” value (HL60 cells; HL60, time-dependent) was “moderately downregulated” and the “mitochondrial membrane potential (Δψm)” value (U266 cells [2]) was “early loss of potential of mitochondrial membrane”.
